This is an account of results in PubChem BioAssay AID1259408 (Genetic Toxicology Data Bank (GENE-TOX), 2018).

Activity calls are given as the source filed them. No rule for the calls is given here.

This series relates to GENE-TOX genotoxicity assays, various organisms and cells. Nature of the series: GENE-TOX mutagenicity studies. The following applies: for call: Assay Type: In vivo carcinogenicity studies.
[1] abbreviates: Species/Cell Type: Salmonella typhimurium (one or more of the five standard strains: TA98, TA100, TA1535, TA1537, and TA1538), Assay Type: Histidine reverse gene mutation, Ames assay, Assay Code: SAL+, Evaluation Type: Evaluation A (Pre-1980).
Setting [2] is: Species/Cell Type: Drosophila melanogaster, Assay Type: Sex-linked recessive lethal gene mutation, Assay Code: SRLT, Evaluation Type: Evaluation A (Pre-1980).
[3] abbreviates: Species/Cell Type: Nonhuman, Assay Code: CCG+, Evaluation Type: Evaluation A (Pre-1980).
Setting [4] is: Species/Cell Type: Aspergillus nidulans, Assay Type: Mitotic recombination, Assay Code: ASG+, Evaluation Type: Evaluation A (Pre-1980).
Setting [5] is: Species/Cell Type: Human diploid fibroblasts, Assay Type: Unscheduled DNA synthesis (UDS) in vitro, DNA effects, Assay Code: UDH-, Evaluation Type: Evaluation A (Pre-1980).
The mark [6] stands for this setting: Species/Cell Type: Human, Assay Type: Sister-chromatid exchange (SCE) in vitro, Assay Code: SC1+, Evaluation Type: Evaluation B (Post-1980).
Where [7] appears, read: Species/Cell Type: Neurospora crassa, Assay Type: Aneuploidy, chromosome aberrations, Assay Code: NEN-, Evaluation Type: Evaluation A (Pre-1980).
Where [8] appears, read: Species/Cell Type: Nonhuman, Assay Code: CCGT, Evaluation Type: Evaluation A (Pre-1980).
[9] abbreviates: Species/Cell Type: Salmonella typhimurium, Assay Type: Forward and reverse gene mutation, host-mediated assay, Assay Code: HMA-, Evaluation Type: Evaluation A (Pre-1980).

As to `Cc1c2c(c(C)c3c1ccc1ccccc13)[C@@H]1OC1[C@@H](O)[C@@H]2O` (stereo partly specified), the mutagenic call (Species/Cell Type: Chinese hamster lung (V79) cells, Assay Type: Forward gene mutation at the HPRT or ouabain locus, Assay Code: V79+, Evaluation Type: Evaluation A (Pre-1980)) is “active; positive”.

For the molecule `CNC(=O)Oc1cc(C)c(N(C)C)c(C)c1`, the call (Species/Cell Type: Nonhuman, Assay Code: CCG-L, Evaluation Type: Evaluation A (Pre-1980)) was “inactive; negative”.

Regarding `COc1ccc(N)c2c1C(=O)c1ccccc1C2=O`, the mutagenic call under setting [1] is “active; positive”.

With `O=CCBr`, the mutagenic call (Species/Cell Type: Escherichia coli polA (W3119 vs P3478), Assay Type: Rec-assay, DNA effects (bacterial DNA repair), Assay Code: RE1+, Evaluation Type: Evaluation A (Pre-1980)) was “active; positive”.

`Cc1cc(C)c(S(=O)(=O)O)cc1N=Nc1cc(S(=O)(=O)O)c2ccccc2c1O`: the mutagenic call is, setting by setting: (Species/Cell Type: Bacillus subtilis (H17 vs M45), Assay Type: Rec-assay, spot test, DNA effects (bacterial DNA repair), Assay Code: REWT, Evaluation Type: Evaluation A (Pre-1980)) “no conclusion”; (Species/Cell Type: Bacillus subtilis (H17 vs M45T), Assay Type: Rec-assay, spot test, DNA effects (bacterial DNA repair), Assay Code: REXT, Evaluation Type: Evaluation A (Pre-1980)) “no conclusion”; (Species/Cell Type: Salmonella typhimurium (one or more of the five standard strains: TA98, TA100, TA1535, TA1537, and TA1538), Assay Type: Histidine reverse gene mutation, Ames assay, Assay Code: SAL-, Evaluation Type: Evaluation A (Pre-1980)) “inactive; negative”.

Take `O=c1ccn([C@H]2C[C@H](O)[C@@H](CO)O2)c(=O)[nH]1`: under setting [2], the mutagenic call is listed as “no conclusion”.

As for `CN(N=O)C(=O)Nc1ccc(Cl)cc1`, where the note is “Species/Cell Type: Nonhuman, Assay Type: Sister-chromatid exchange (SCE) in vitro, Assay Code: SC2+D, Dose Response: With dose response, Evaluation Type: Evaluation B (Post-1980)”, the mutagenic call is “active; positive”.

Turning to `CC1CC2OC(/C=C/C=C/C=C/C=C/C=C/C(O)=C3\C(=O)C(C(C)C)N(C)C3=O)C(O)C2O1` (stereo unspecified), the mutagenic call (Species/Cell Type: Bacillus subtilis (H17 vs M45), Assay Type: Rec-assay, spot test, DNA effects (bacterial DNA repair), Assay Code: REW-, Evaluation Type: Evaluation A (Pre-1980)) is “inactive; negative”.

As to `O=NN1CCC[C@H]1c1cccnc1`, the call under setting [3] was “active; positive”. In addition, the mutagenic call (Species/Cell Type: Rat primary hepatocytes, Assay Type: Unscheduled DNA synthesis (UDS) in vitro, DNA effects, Assay Code: UDP+, Evaluation Type: Evaluation A (Pre-1980)) was “active; positive”.

In the case of `CN(C)Nc1nc(-c2ccc([N+](=O)[O-])o2)cs1`, the mutagenic call reads like this: (Species/Cell Type: Escherichia coli WP2, Assay Type: Tryptophan reverse gene mutation, Assay Code: WP2+, Evaluation Type: Evaluation A (Pre-1980)) “active; positive”; (Species/Cell Type: Escherichia coli WP2 UVRA, Assay Type: Tryptophan reverse gene mutation, Assay Code: WPU-, Evaluation Type: Evaluation A (Pre-1980)) “inactive; negative”; under setting [1], “active; positive”.

On to `O=c1[nH]c(=O)n([C@H]2C[C@H](O)[C@@H](CO)O2)cc1F`, for which the mutagenic call is, setting by setting: (Species/Cell Type: Aspergillus nidulans, Assay Type: Aneuploidy, chromosome aberrations, Assay Code: ASNT, Evaluation Type: Evaluation A (Pre-1980)) “no conclusion”; under setting [4], “active; positive”; (Species/Cell Type: Chinese hamster lung (V79) cells, Assay Type: Forward gene mutation at the HPRT or ouabain locus, Assay Code: V79-, Evaluation Type: Evaluation A (Pre-1980)) “inactive; negative”; (Species/Cell Type: Drosophila melanogaster, Assay Type: Aneuploidy, sex chromosome gain, chromosome aberrations, Assay Code: DAG+F, Evaluation Type: Evaluation A (Pre-1980)) “active; positive”; (Species/Cell Type: Drosophila melanogaster, Assay Type: Aneuploidy, whole sex chromosome loss, chromosome aberrations, Assay Code: DAC+F, Evaluation Type: Evaluation A (Pre-1980)) “active; positive”; under setting [2], “no conclusion”. Also, the mutagenic call is “inactive; negative” (Species/Cell Type: Escherichia coli polA (W3119 vs P3478), Assay Type: Rec-assay, DNA effects (bacterial DNA repair), Assay Code: RE1-, Evaluation Type: Evaluation A (Pre-1980)); “active; positive” (Species/Cell Type: Glycine max (soybean), Assay Type: Gene mutation, Assay Code: GLM+, Evaluation Type: Evaluation A (Pre-1980)); “inactive; negative” under setting [5]; “no conclusion” (Species/Cell Type: Human lymphocytes, Assay Type: Sister-chromatid exchange (SCE) in vitro, Assay Code: SCLT, Evaluation Type: Evaluation B (Post-1980)); “active; positive” under setting [6]; “active; positive” (Species/Cell Type: Mammalian polychromatic erythrocytes, Assay Type: Micronucleus test, chromosome aberrations, Assay Code: MNT+U, Dose Response: Unconfirmed positive response, Evaluation Type: Evaluation B (Post-1980)). The mutagenic call runs as follows: (Species/Cell Type: Mouse (C3H/10T1/2) cells, Assay Type: Cell transformation, Assay Code: CTH+, Evaluation Type: Evaluation A (Pre-1980)) “active; positive”; under setting [7], “inactive; negative”; (Species/Cell Type: Nonhuman, Assay Type: Sister-chromatid exchange (SCE) in vitro, Assay Code: SC2+, Evaluation Type: Evaluation B (Post-1980)) “active; positive”; (Species/Cell Type: Saccharomyces cerevisiae, Assay Type: Mitotic recombination or gene conversion, Assay Code: YEH+, Evaluation Type: Evaluation A (Pre-1980)) “active; positive”; under setting [9], “inactive; negative”; (Species/Cell Type: Syrian hamster embryo (SA7/SHE) cells, Assay Type: Cell transformation, viral enhanced, Assay Code: CT7+, Evaluation Type: Evaluation A (Pre-1980)) “active; positive”. The mutagenic call is, setting by setting: (Species/Cell Type: Syrian hamster embryo (SHE) cells, Assay Type: Cell transformation, clonal assay, Assay Code: CTC-, Evaluation Type: Evaluation A (Pre-1980)) “inactive; negative”; (Species/Cell Type: Vicia faba, Assay Type: Chromosome aberrations, Assay Code: VIC+, Evaluation Type: Evaluation A (Pre-1980)) “active; positive”. Moreover, the call under setting [8] was “no conclusion”.

Regarding `Nc1nnc(-c2ccc([N+](=O)[O-])o2)s1`, the call under setting [3] was “active; positive”.

`O=[N+]([O-])c1cc(Cl)cc(Sc2cc(Cl)cc([N+](=O)[O-])c2O)c1O`: the mutagenic call (Species/Cell Type: Mammalian polychromatic erythrocytes, Assay Type: Micronucleus test, chromosome aberrations, Assay Code: MNTT, Evaluation Type: Evaluation B (Post-1980)) is listed as “no conclusion”.

As to `OC[C@@H](O)C(O)[C@@H](O)CO` (stereo partly specified), the mutagenic call is “inactive; negative” (Species/Cell Type: Human, Assay Type: Sister-chromatid exchange (SCE) in vitro, Assay Code: SC1-, Evaluation Type: Evaluation B (Post-1980)); “inactive; negative” (Species/Cell Type: Salmonella typhimurium, Assay Type: Forward and reverse gene mutation, body fluid assay, Assay Code: BFU-, Evaluation Type: Evaluation A (Pre-1980)); “inactive; negative” under setting [9].

On to `Nc1ccc(S(N)(=O)=O)cc1`, for which the mutagenic call reads like this: (Species/Cell Type: Aspergillus nidulans, Assay Type: Aneuploidy, chromosome aberrations, Assay Code: ASN-, Evaluation Type: Evaluation A (Pre-1980)) “inactive; negative”; under setting [4], “active; positive”; under setting [7], “inactive; negative”. The call under setting [8] is listed as “no conclusion”.

Regarding `Cc1ccc(C2CO2)cc1` (stereo unspecified), the mutagenic call reads like this: (Species/Cell Type: Escherichia coli WP2 UVRA, Assay Type: Tryptophan reverse gene mutation, Assay Code: WPU+D, Dose Response: With dose response, Evaluation Type: Evaluation A (Pre-1980)) “active; positive”; (Species/Cell Type: Human lymphocytes, Assay Type: Sister-chromatid exchange (SCE) in vitro, Assay Code: SCL+, Evaluation Type: Evaluation B (Post-1980)) “active; positive”; under setting [6], “active; positive”; under setting [1], “active; positive”.

For the molecule `C=CCn1c(Cl)c(CC)c(=O)n(CC)c1=O`, the mutagenic call under setting [2] was “no conclusion”.

Regarding `CC(C)CCC[C@@H](C)[C@H]1CC[C@H]2[C@@H]3CC=C4C[C@@H](OC(=O)Cc5ccc(N(CCCl)CCCl)cc5)CC[C@]4(C)[C@H]3CC[C@]12C`, the call under setting [3] was “active; positive”.

As to `CC1(C)C(C=C(Cl)Cl)C1C(=O)OC(C#N)c1cccc(Oc2ccccc2)c1` (stereo unspecified), the mutagenic call reads like this: under setting [5], “inactive; negative”; (Species/Cell Type: Mammalian polychromatic erythrocytes, Assay Type: Micronucleus test, chromosome aberrations, Assay Code: MNT+, Evaluation Type: Evaluation B (Post-1980)) “active; positive”; (Species/Cell Type: Saccharomyces cerevisiae, Assay Type: Mitotic recombination or gene conversion, Assay Code: YEH-, Evaluation Type: Evaluation A (Pre-1980)) “inactive; negative”.

Take `BrCC(Br)CBr`: the mutagenic call under setting [1] was “active; positive”.

`NC[C@@H]1OC(O[C@H]2[C@@H](O)[C@H](O[C@@H]3[C@@H](O)[C@H](N)C[C@H](N)[C@H]3O[C@H]3O[C@H](CN)[C@@H](O)[C@H](O)[C@H]3N)O[C@@H]2CO)[C@H](N)[C@@H](O)[C@@H]1O` (stereo partly specified): the mutagenic call (Species/Cell Type: Rat, Sex: Male, Assay Type: Sperm morphology, Assay Code: SPA+, Evaluation Type: Evaluation A (Pre-1980)) is “active; positive”.
